Results published in PMC9940851, “Seleno Containing Compounds as Potent and Selective Antifungal Agents” (ACS Infectious Diseases, 2022).
≈ marks a conversion by molar mass, not a printed value.

How the values were obtained:
MgCA = molecular target: T1, MgCA (Malassezia globosa, UniProt A8Q1N3); experiment: stopped-flow CO2 hydrase assay; format: biochemical
T1 construct: gene MGL_1814
T1 sequence (A8Q1N3 1-241): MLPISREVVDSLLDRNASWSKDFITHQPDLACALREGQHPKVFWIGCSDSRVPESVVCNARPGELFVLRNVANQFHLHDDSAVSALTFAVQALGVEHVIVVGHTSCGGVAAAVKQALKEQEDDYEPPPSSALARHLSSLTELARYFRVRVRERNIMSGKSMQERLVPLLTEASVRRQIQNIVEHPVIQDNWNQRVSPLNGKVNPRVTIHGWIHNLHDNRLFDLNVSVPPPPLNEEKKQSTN
How it was run: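 Stopped-flow recording over 10–100 s followed CO2 hydration (1.7–17 mM CO2) in 20 mM Hepes pH 7.4 plus 20 mM Na2SO4, using 0.2 mM phenol red at 557 nm, after recombinant carbonic anhydrase (5–12 nM) had been preincubated with inhibitor for 15 min at room temperature. Initial rates, corrected for uncatalysed rates, came from at least six traces, and at least three determinations were averaged. Ki was calculated by nonlinear least-squares fitting with the Cheng-Prusoff equation.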

MpaCA = molecular target: T2, MpaCA (Malassezia pachydermatis, UniProt A0A0M8MPA4); experiment: stopped-flow CO2 hydrase assay; format: biochemical
T2 construct: gene Malapachy_3798
T2 sequence (A0A0M8MPA4 1-242): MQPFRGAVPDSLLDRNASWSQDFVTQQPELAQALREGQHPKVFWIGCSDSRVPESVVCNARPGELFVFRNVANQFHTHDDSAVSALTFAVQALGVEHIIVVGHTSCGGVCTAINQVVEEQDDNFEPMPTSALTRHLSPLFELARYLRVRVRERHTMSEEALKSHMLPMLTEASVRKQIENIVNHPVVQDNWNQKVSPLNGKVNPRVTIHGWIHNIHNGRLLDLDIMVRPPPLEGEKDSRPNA

M. globosa ATCC MYA 4612 = system: T3, M. globosa ATCC MYA 4612; experiment: microbe, parasite or virus in culture; conditions: Malassezia globosa
T3 construct: ATCC MYA 4612
Experimental: (§1) Inoculum preparations for antifungal assays were performed following the CLSI guidelines for antifungal susceptibility testing of yeasts.[31] Antifungal activity was evaluated on unicellular yeasts Candida albicans ATCC 10231, Candida glabrata ATCC 90030 (DSMZ 11226), Malassezia pachydermatis CDC 16334 (DSMZ 6172), Malassezia globosa ATCC MYA 4612, and Malassezia furfur ATCC 14521. All the fungal strains were stored at −80 °C in cryovials. Then Candida spp. and Malassezia pachydermatis were reactivated in RPMI 1640 broth for 24–48 h at 35 °C. The so obtained fresh cultures were streaked onto Sabouraud dextrose agar and incubated for 24–48 h at 35 °C. Malassezia globosa and furfur were reactivated in modified RPMI 1640 broth[32] for 24–48 h at 35 °C (M. furfur) and 33 °C (M. globosa), and then the cultures were streaked onto Leeming and Notman agar (MLNA) and incubated for 48–72 h at 35 °C for M. furfur and at 33 °C for M. globosa. The fungal inoculum for the testing was prepared by suspending in phosphate buffer (PB) 10 mM pH 7 4–5 colonies of about 1 mm diameter. The fungal suspension was then adjusted to a final optical density of 0.5 McFarland standard (1–5 × 10^6 cells/mL). The compound solutions were tested in a range of concentrations from 0.01 μg/mL to 256 μg/mL, and 50 μL were then added in 96 wells microtiter plates with 50 μL of fungal inoculum and incubated for 24–48 h at 35 °C. Growth and sterility controls were performed. […] Compounds 3a, 3c, 5b, 7a–d, 9c, 11e, 11i, and 14a,b were selected as representatives of the chemical moieties synthesized prior to their screen on yeasts of biomedical relevance such as M. pachydermatis DSMZ 6172, C. albicans ATCC 10231, and C. glabrata ATCC 90030 (DSMZ 11226) strains. The clinical used drugs Ketoconazole, SeS2, and Amphotericin B were included as references (Table 1).

ATCC M. furfur 14521 = system: T4, ATCC M. furfur 14521; experiment: microbe, parasite or virus in culture; conditions: Malassezia furfur
T4 construct: ATCC 14521
Experimental: as §1

[1] = system: T5, M. pachydermatis DSMZ 6172; experiment: microbe, parasite or virus in culture; design: broth microdilution MIC, M. pachydermatis and Candida, 35 °C; conditions: Malassezia pachydermatis, DSMZ6172
T5 construct: DSMZ 6172 (CDC 16334)
Experimental: as §1

Structure (SMILES)	Ki (MgCA)	Ki (MpaCA)	MIC (M. globosa ATCC MYA 4612)	MIC (ATCC M. furfur 14521)	MIC [1]
O=C(NC(=[Se])Nc1ccc(S(=O)(=O)Nc2nccs2)cc1)c1ccccc1 [10a, N-((4-(N-(Thiazol-2-yl)sulfamoyl)phenyl)carbamoselenoyl)benzamide]	52.8 µM	42.9 µM	128 µg/mL (≈ 275 µM)	8 µg/mL (≈ 17.2 µM)	1 µg/mL (≈ 2.15 µM)
NS(=O)(=O)c1cccc(NC(=[Se])NC(=O)c2ccc(Br)cc2F)c1 [8g, 4-Bromo-2-fluoro-N-((3-sulfamoylphenyl)carbamoselenoyl)benzamide]	3.48 µM	65.7 µM	128 µg/mL (≈ 267 µM)	8 µg/mL (≈ 16.7 µM)	13.3 ± 4.6 µg/mL (≈ 27.8 µM)
NS(=O)(=O)c1cccc(NC(=[Se])NC(=O)c2cc(Br)cc(OC(F)(F)F)c2)c1 [8c, 3-Bromo-N-((3-sulfamoylphenyl)carbamoselenoyl)-5-(trifluoromethoxy)benzamide]	7.65 µM	86.1 µM	256 µg/mL (≈ 470 µM)	9.3 ± 6.11 µg/mL (≈ 17.1 µM)	2 µg/mL (≈ 3.67 µM)
CCCCCCCc1ccc(C(=O)NC(=[Se])Nc2ccc(S(=O)(=O)Nc3nccs3)cc2)cc1 [10c, 4-Heptyl-N-((4-(N-(thiazol-2-yl)sulfamoyl)phenyl)carbamoselenoyl)benzamide]	60.6 µM	91.9 µM	> 256 µg/mL	4 µg/mL (≈ 7.1 µM)	0.8 ± 0.29 µg/mL (≈ 1.42 µM)
NS(=O)(=O)c1ccc(CCNC(=[Se])NC(=O)c2ccc(/N=N/c3ccccc3)cc2)cc1 [9f, (E)-4-(Phenyldiazenyl)-N-((4-sulfamoylphenethyl)carbamoselenoyl)benzamide]	2.39 µM	88.8 µM	8 µg/mL (≈ 15.6 µM)	2.7 ± 1.15 µg/mL (≈ 5.25 µM)	3.33 ± 1.15 µg/mL (≈ 6.47 µM)
NS(=O)(=O)c1cccc(NC(=[Se])NC(=O)c2ccccc2)c1 [8a]	4.14 µM	33.7 µM	128 µg/mL (≈ 335 µM)	21.3 ± 9.24 µg/mL (≈ 55.7 µM)	2 µg/mL (≈ 5.23 µM)
NS(=O)(=O)c1ccc(NC(=[Se])Nc2cccc(C(F)(F)F)c2)cc1 [3d]	0.803 µM	0.617 µM	> 256 µg/mL	213 ± 73.9 µg/mL (≈ 505 µM)	6 ± 3.46 µg/mL (≈ 14.2 µM)
CCCCCCCc1ccc(C(=O)NC(=[Se])Nc2ccc(S(N)(=O)=O)cc2)cc1 [7e]	5.88 µM	78.2 µM	> 256 µg/mL	10.7 ± 4.62 µg/mL (≈ 22.3 µM)	0.5 µg/mL (≈ 1.04 µM)
NS(=O)(=O)c1ccc(CCNC(=[Se])NC(=O)c2ccc(F)cc2)cc1 [9d, 4-Fluoro-N-((4-sulfamoylphenethyl)carbamoselenoyl)benzamide]	8 µM	75 µM	128 µg/mL (≈ 299 µM)	2.3 ± 2.31 µg/mL (≈ 5.37 µM)	1 µg/mL (≈ 2.33 µM)
NS(=O)(=O)c1cccc(NC(=[Se])NC(=O)c2ccc(I)cc2)c1 [8e, 4-Iodo-N-((3-sulfamoylphenyl)carbamoselenoyl)benzamide]	8.74 µM	77.6 µM	> 256 µg/mL	6.7 ± 2.31 µg/mL (≈ 13.2 µM)	8 µg/mL (≈ 15.7 µM)
NS(=O)(=O)c1cccc(NC(=[Se])Nc2ccccc2)c1 [4a]	0.783 µM	0.283 µM	256 µg/mL (≈ 723 µM)	107 ± 37 µg/mL (≈ 301 µM)	4 µg/mL (≈ 11.3 µM)
O=C(NC(=[Se])Nc1ccc(S(=O)(=O)Nc2nccs2)cc1)c1ccc(I)cc1 [10f, 4-Iodo-N-((4-(N-(thiazol-2-yl)sulfamoyl)phenyl)carbamoselenoyl)benzamide]	10.2 µM	74.3 µM	> 256 µg/mL	5.3 ± 2.31 µg/mL (≈ 8.96 µM)	2 µg/mL (≈ 3.38 µM)
CCCCCCCc1ccc(C(=O)NC(=[Se])Nc2cc(S(N)(=O)=O)ccc2O)cc1 [11b]	4.93 µM	78 µM	256 µg/mL (≈ 516 µM)	5.3 ± 2.31 µg/mL (≈ 10.7 µM)	8 µg/mL (≈ 16.1 µM)
NS(=O)(=O)c1ccc(NC(=[Se])Nc2ccccc2Cl)cc1 [3e]	0.655 µM	0.693 µM	256 µg/mL (≈ 659 µM)	5.3 ± 2.31 µg/mL (≈ 13.6 µM)	1 ± 0.87 µg/mL (≈ 2.57 µM)
CCCCCCCc1ccc(C(=O)NC(=[Se])Nc2cccc(S(N)(=O)=O)c2)cc1 [8b, 4-Heptyl-N-((3-sulfamoylphenyl)carbamoselenoyl)benzamide]	2.19 µM	49.3 µM	213 ± 73.9 µg/mL (≈ 444 µM)	6.7 ± 2.31 µg/mL (≈ 13.9 µM)	0.8 ± 0.29 µg/mL (≈ 1.66 µM)
NS(=O)(=O)c1ccc(O)c(NC(=[Se])NC(=O)c2ccccc2)c1 [11a]	4.1 µM	13.4 µM	128 µg/mL (≈ 321 µM)	2.7 ± 1.15 µg/mL (≈ 6.78 µM)	1 µg/mL (≈ 2.51 µM)
NS(=O)(=O)c1ccc(CCNC(=[Se])Nc2ccccc2Cl)cc1 [5e]	0.812 µM	0.518 µM	256 µg/mL (≈ 614 µM)	2.3 ± 1.53 µg/mL (≈ 5.52 µM)	0.5 µg/mL (≈ 1.2 µM)
NS(=O)(=O)c1ccc(CCNC(=[Se])NC(=O)c2ccc(I)cc2)cc1 [9e, 4-Iodo-N-((4-sulfamoylphenethyl)carbamoselenoyl)benzamide]	1.57 µM	83.3 µM	32 µg/mL (≈ 59.7 µM)	3.3 ± 1.15 µg/mL (≈ 6.15 µM)	1 µg/mL (≈ 1.86 µM)
O=C(NC(=[Se])Nc1ccc(S(=O)(=O)Nc2nccs2)cc1)c1cc(Br)cc(OC(F)(F)F)c1 [10b, 3-Bromo-N-((4-(N-(thiazol-2-yl)sulfamoyl)phenyl)carbamoselenoyl)-5-(trifluoromethoxy)benzamide]	9.26 µM	85.3 µM	341 ± 148 µg/mL (≈ 543 µM)	427 ± 148 µg/mL (≈ 679 µM)	16 µg/mL (≈ 25.5 µM)
NS(=O)(=O)c1ccc(CCNC(=[Se])Nc2ccc3ccccc3c2)cc1 [5h]	0.561 µM	0.26 µM	64 µg/mL (≈ 148 µM)	1.7 ± 0.58 µg/mL (≈ 3.93 µM)	0.5 µg/mL (≈ 1.16 µM)
NS(=O)(=O)c1ccc(O)c(NC(=[Se])NC(=O)c2ccc([N+](=O)[O-])cc2)c1 [11c, N-((2-Hydroxy-5-sulfamoylphenyl)carbamoselenoyl)-4-nitrobenzamide]	5.02 µM	91.2 µM	128 µg/mL (≈ 289 µM)	5.3 ± 2.31 µg/mL (≈ 12 µM)	0.5 µg/mL (≈ 1.13 µM)
NS(=O)(=O)c1ccc(CCNC(=[Se])Nc2ccc(I)cc2)cc1 [5g]	0.689 µM	0.531 µM	85.3 ± 37 µg/mL (≈ 168 µM)	1.7 ± 0.58 µg/mL (≈ 3.34 µM)	1 µg/mL (≈ 1.97 µM)
